Data reported in PubChem BioAssay (NCI).
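Method: 48-hour compound exposure of cells in 96-well plates, five concentrations, linear interpolation of endpoints. GI50 = concentration required for 50% inhibition of growth. The concentration for full growth arrest is given as TGI.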

Key:
Experiment in all cases: growth of human tumour cells (NCI), 48 h
A498 renal = system: A498 renal
KM12 colon = system: KM12 colon
IGROV1 ovarian = system: IGROV1 ovarian
UACC-62 melanoma = system: UACC-62 melanoma
HS 578T breast = system: HS 578T breast
DU-145 prostate = system: DU-145 prostate
HL-60(TB) leukemia = system: HL-60(TB) leukemia
A549 NSCLC = system: A549 NSCLC
ACHN renal = system: ACHN renal
CAKI-1 renal = system: CAKI-1 renal
HCT-116 colon = system: HCT-116 colon
MCF7 breast = system: MCF7 breast
SF-268 CNS = system: SF-268 CNS
HOP-62 NSCLC = system: HOP-62 NSCLC
NCI-H522 lung = system: NCI-H522 lung
NCI-H460 lung = system: NCI-H460 lung
SK-MEL-2 melanoma = system: SK-MEL-2 melanoma
HOP-92 NSCLC = system: HOP-92 NSCLC
HT29 colon = system: HT29 colon
RXF 393 renal = system: RXF 393 renal
SF-539 CNS = system: SF-539 CNS
MDA-MB-231 breast = system: MDA-MB-231 breast
M14 melanoma = system: M14 melanoma
MOLT-4 leukemia = system: MOLT-4 leukemia
SNB-19 CNS = system: SNB-19 CNS
MALME-3M melanoma = system: MALME-3M melanoma
COLO 205 colon = system: COLO 205 colon
PC-3 prostate = system: PC-3 prostate
EKVX NSCLC = system: EKVX NSCLC
HCC-2998 colon = system: HCC-2998 colon
SR leukemia = system: SR leukemia
RPMI-8226 leukemia = system: RPMI-8226 leukemia
UACC-257 melanoma = system: UACC-257 melanoma
BT-549 breast = system: BT-549 breast
TK-10 renal = system: TK-10 renal
SK-OV-3 ovarian = system: SK-OV-3 ovarian
SK-MEL-5 melanoma = system: SK-MEL-5 melanoma
OVCAR-5 ovarian = system: OVCAR-5 ovarian
K-562 leukemia = system: K-562 leukemia
CCRF-CEM leukemia = system: CCRF-CEM leukemia
HCT-15 colon = system: HCT-15 colon
MDA-MB-435 = system: MDA-MB-435
SNB-75 CNS = system: SNB-75 CNS
786-0 renal = system: 786-0 renal
LOX IMVI melanoma = system: LOX IMVI melanoma
T-47D breast = system: T-47D breast
U251 CNS = system: U251 CNS
SF-295 CNS = system: SF-295 CNS

Nc1nc(-c2cccc([N+](=O)[O-])c2)c(N=Nc2ccccc2[N+](=O)[O-])s1
GI50 (A498 renal): 7.62 µM | TGI (A498 renal): 30.5 µM | GI50 (KM12 colon): 5.39 µM | TGI (KM12 colon): > 100 µM | GI50 (IGROV1 ovarian): 2.32 µM | TGI (IGROV1 ovarian): 5.84 µM | GI50 (UACC-62 melanoma): 2.11 µM | TGI (UACC-62 melanoma): > 100 µM | GI50 (HS 578T breast): 2.55 µM | TGI (HS 578T breast): 9.04 µM | GI50 (DU-145 prostate): 4.79 µM | TGI (DU-145 prostate): > 100 µM | GI50 (HL-60(TB) leukemia): 48.7 µM | TGI (HL-60(TB) leukemia): > 100 µM | GI50 (A549 NSCLC): 20.7 µM | TGI (A549 NSCLC): > 100 µM | GI50 (ACHN renal): 1.27 µM | TGI (ACHN renal): 2.75 µM | GI50 (CAKI-1 renal): 1.43 µM | TGI (CAKI-1 renal): 2.98 µM | GI50 (HCT-116 colon): 1.51 µM | TGI (HCT-116 colon): 5.73 µM | GI50 (MCF7 breast): 18.8 µM | TGI (MCF7 breast): > 100 µM | GI50 (SF-268 CNS): 3.62 µM | TGI (SF-268 CNS): > 100 µM | GI50 (HOP-62 NSCLC): 2.04 µM | TGI (HOP-62 NSCLC): 6.33 µM | GI50 (NCI-H522 lung): 1.94 µM | TGI (NCI-H522 lung): 14.4 µM | GI50 (NCI-H460 lung): 2.25 µM | TGI (NCI-H460 lung): > 100 µM | GI50 (SK-MEL-2 melanoma): 14.8 µM | TGI (SK-MEL-2 melanoma): 38.7 µM | GI50 (HOP-92 NSCLC): 0.285 µM | TGI (HOP-92 NSCLC): 3.63 µM | GI50 (HT29 colon): 59 µM | TGI (HT29 colon): > 100 µM | GI50 (RXF 393 renal): 1.64 µM | TGI (RXF 393 renal): 3.2 µM | GI50 (SF-539 CNS): 1.47 µM | TGI (SF-539 CNS): 2.89 µM | GI50 (MDA-MB-231 breast): 1.46 µM | TGI (MDA-MB-231 breast): 3.26 µM | GI50 (M14 melanoma): 4.84 µM | TGI (M14 melanoma): 61.3 µM | GI50 (MOLT-4 leukemia): 8.73 µM | TGI (MOLT-4 leukemia): > 100 µM | GI50 (SNB-19 CNS): 3.01 µM | TGI (SNB-19 CNS): 14.4 µM | GI50 (MALME-3M melanoma): 2.9 µM | TGI (MALME-3M melanoma): 8.6 µM | GI50 (COLO 205 colon): 42.8 µM | TGI (COLO 205 colon): > 100 µM | GI50 (PC-3 prostate): 3.43 µM | TGI (PC-3 prostate): > 100 µM | GI50 (EKVX NSCLC): 6.05 µM | TGI (EKVX NSCLC): > 100 µM | GI50 (HCC-2998 colon): 53.5 µM | TGI (HCC-2998 colon): > 100 µM | GI50 (SR leukemia): 22.7 µM | TGI (SR leukemia): > 100 µM | GI50 (RPMI-8226 leukemia): 4.18 µM | TGI (RPMI-8226 leukemia): > 100 µM | GI50 (UACC-257 melanoma): 63.4 µM | TGI (UACC-257 melanoma): > 100 µM | GI50 (BT-549 breast): 4.66 µM | TGI (BT-549 breast): 32.7 µM | GI50 (TK-10 renal): 2.91 µM | TGI (TK-10 renal): 5.95 µM | GI50 (SK-OV-3 ovarian): 2.13 µM | TGI (SK-OV-3 ovarian): 5.2 µM | GI50 (SK-MEL-5 melanoma): 3.41 µM | TGI (SK-MEL-5 melanoma): 31.1 µM | GI50 (OVCAR-5 ovarian): 8.34 µM | TGI (OVCAR-5 ovarian): > 100 µM | GI50 (K-562 leukemia): 5.57 µM | TGI (K-562 leukemia): > 100 µM | GI50 (CCRF-CEM leukemia): 3.42 µM | TGI (CCRF-CEM leukemia): > 100 µM | GI50 (HCT-15 colon): 2.35 µM | TGI (HCT-15 colon): > 100 µM | GI50 (MDA-MB-435): 0.865 µM | TGI (MDA-MB-435): > 100 µM | GI50 (SNB-75 CNS): 1.44 µM | TGI (SNB-75 CNS): 3.61 µM | GI50 (786-0 renal): 1.54 µM | TGI (786-0 renal): 3.01 µM | GI50 (LOX IMVI melanoma): 1.83 µM | TGI (LOX IMVI melanoma): 6 µM | GI50 (T-47D breast): 4.04 µM | TGI (T-47D breast): > 100 µM | GI50 (U251 CNS): 1.69 µM | TGI (U251 CNS): 3.29 µM | GI50 (SF-295 CNS): 2.8 µM | TGI (SF-295 CNS): 14.1 µM
